Test results published in article PMC9688344, “[^225Ac]Ac-SibuDAB for Targeted Alpha Therapy of Prostate Cancer: Preclinical Evaluation and Comparison with [^225Ac]Ac-PSMA-617” (Cancers, 2022).

Tested on: immunocompetent FVB mice
Assay: Tolerability study in immunocompetent mice
Assay type: in vivo
From the text: Five- to six-week-old immunocompetent, female FVB mice were purchased from Charles River Laboratories (Sulzfeld, Germany). After an acclimatization period of at least 7 days, the mice (n = 5 per group) were intravenously injected with 30 kBq [^225Ac]Ac-SibuDAB or 30 kBq [^225Ac]Ac-PSMA-617 and additional mice (n = 7 per group) remained untreated as controls. Mice were monitored by measuring their body mass and potential signs of pain or unease three times a week (Supplementary Material: Section S7). The mice were euthanized on Day 10, Day 28 or on Day 56, respectively, and variable parameters were assessed from blood and tissue samples.
Hematological analysis was performed using blood samples taken by cardiac puncture immediately after euthanasia. Blood and bone marrow smears were prepared and stained using the Pappenheim protocol. The assessment was carried out by a board-certified veterinary anatomic pathologist (AnaPath Services GmbH, Liestal, Switzerland). Blood plasma parameters were determined in plasma after centrifugation of blood samples obtained shortly before euthanasia (Supplementary Material: Section S7).
Tissue sections of formalin-fixed paraffin-embedded (FFPE) spleen, salivary glands and kidneys were prepared and stained with hematoxylin and eosin (H&E) by AnaPath Services GmbH (Liestal, Switzerland). The tissues were analyzed by a board certified veterinary pathologist using a pre-defined scoring system (Supplementary Material: Section S7). […]
The percentage of radioligand bound to mouse or human plasma (A bound) was plotted against the molar ratios of MSA/HSA to radioligand and fitted with a nonlinear regression curve (specific binding with Hill slope, Bmax set to 100%) using GraphPad Prism software (version 8) to obtain the half maximum binding (B 50).
Results: The results are reported in the main article.
Purpose: A tolerability study with normal, immunocompetent FVB mice was con-ducted in order to assess potential side effects to the bone marrow, spleen, salivary glands and kidneys after the application of high activities of the 225Ac-labeled PSMA radioligands.
Methods: Monitoring Body Mass and Signs of Unease: Mice were monitored by meas-uring their body mass (BM) three times a week. The body masses were expressed as the relative body mass, defined as [BMx/BM0], where BMx is the body mass in grams on a given Day x and BM0 is the body mass in grams on Day 0. Endpoint criteria, defined as (i) >15% loss in body mass, (ii) signs of unease and pain or a combination thereof based on a scoring system, were not reached in this stu dy.
Hematology: Blood cell counts were determined in blood samples taken by cardiac puncture immediately after euthanasia and collected in EDTA tubes (Microvette® 100 K3 EDTA, Sarstedt, Germany). Leukocyte, lymphocyte, erythrocyte and thrombocyte counts as well as hemoglobin and hematocrit values were determined using a hematology ana-lyzer (VetScan HM5, Abaxis, United States). Blood smears were prepared on glass slides with cardiac blood. The bone marrow was collected from the femur, diluted in FCS/H2O (2:1 v/v) and smeared onto microscopy slides using a paintbrush. The slides were stained with a May Grünwald solution and subsequently with diluted Giemsa solution using the Pappenheim method and covered with coverslips using mounting medium (Pertex).
The assessment of potential morphological ch anges of the blood cells and counting of the subgroups of leukocytes was performed by a board-certified veterinary pathologist (Ana-Path Services GmbH, Liestal, Switzerland).
Histopathological Analysis: Spleen, salivary glands and kidneys were formalin-fixed and paraffin-embedded. Tissue sections were stained with hematoxylin & eosin (H&E) […]
Blood Plasma Parameters: Blood plasma parameters were determined in plasma ob-tained from centrifuged retrobulbar blood samples collected in lithium-heparin tubes (Mi-crovette® 200 LH, SARSTEDT). The concentrations of blood urea nitrogen (BUN), alkaline […]

O=C([O-])CN1CCN(CC(=O)[O-])CCN(CC(=O)NCC2CCC(C(=O)NC(Cc3ccc4ccccc4c3)C(=O)NCCCCC(NC(=O)NC(CCC(=O)O)C(=O)O)C(=O)O)CC2)CCN(CC(=O)[O-])CC1.[225Ac+3] (stereo not shown) [[^225Ac]Ac-PSMA-617]
Tolerability (body mass) (30 kBq per mouse, until Day 56): well tolerated
Kidneys: Hyperplasia/hypertrophy, tubular, incidence (Day 10, 30 kBq): 2
Kidneys: Hyperplasia/hypertrophy, tubular, score average (Day 10, 30 kBq): 1.0
Kidneys: Hypertrophy/hyperplasia, tubular with ectasia, incidence (Day 10, 30 kBq): 0
Kidneys: Hypertrophy/hyperplasia, tubular with ectasia, score average (Day 10, 30 kBq): 0.0
Kidneys: Inflammatory cells, interstitium, incidence (Day 10, 30 kBq): 0
Kidneys: Inflammatory cells, interstitium, score average (Day 10, 30 kBq): 0.0
Kidneys: Inflammatory cells, pelvis, incidence (Day 10, 30 kBq): 0
Kidneys: Inflammatory cells, pelvis, score average (Day 10, 30 kBq): 0.0
Kidneys: Mineralization, papilla, incidence (Day 10, 30 kBq): 0
Kidneys: Mineralization, papilla, score average (Day 10, 30 kBq): 0.0
Kidneys: Tubular basophilia, incidence (Day 10, 30 kBq): 0
Kidneys: Tubular basophilia, score average (Day 10, 30 kBq): 0.0
Salivary glands: Ductal hyperplasia with inflammatory cells, incidence (Day 10, 30 kBq): 0
Salivary glands: Ductal hyperplasia with inflammatory cells, score average (Day 10, 30 kBq): 0.0
Salivary glands: Hypertrophy acinar, sublingual, incidence (Day 10, 30 kBq): 0
Salivary glands: Hypertrophy acinar, sublingual, score average (Day 10, 30 kBq): 0.0
Salivary glands: Mononuclear cell foci, incidence (Day 10, 30 kBq): 1
Salivary glands: Mononuclear cell foci, score average (Day 10, 30 kBq): 1.0
Salivary glands: Necrosis, multifocal, serous acinar cells, incidence (Day 10, 30 kBq): two out of five
Salivary glands: Necrosis, multifocal, serous acinar cells, score average (Day 10, 30 kBq): 1.0
Salivary glands: Vacuolation, incidence (Day 10, 30 kBq): 0
Salivary glands: Vacuolation, score average (Day 10, 30 kBq): 0.0
Spleen: Extramedullary hematopoiesis, incidence (Day 10, 30 kBq): 5
Spleen: Extramedullary hematopoiesis, score average (Day 10, 30 kBq): 1.0
Spleen: Hyperplasia, lymphoid, incidence (Day 10, 30 kBq): 1
Spleen: Hyperplasia, lymphoid, score average (Day 10, 30 kBq): 1.0
Spleen: Pigment, incidence (Day 10, 30 kBq): 5
Spleen: Pigment, score average (Day 10, 30 kBq): 1.0
mice with relative increase of neutrophilic blasts (metamyelocytes) in peripheral blood (Day 10, 30 kBq): two out of five
myelopoiesis in bone marrow smears (group value) (Day 10, 30 kBq): 62%
Salivary glands: Necrosis, multifocal, serous acinar cells, incidence (Day 10, 30 kBq, listed as [225Ac]Ac-PSMA-617): 2
Blood smear, Notes (Day 10, mouse M1): More neutrophilic blasts (Metamyelocyte)
Bone marrow % E (Day 10, mouse M1): 50%
Bone marrow % M (Day 10, mouse M1): 50%
Blood smear, Notes (Day 10, mouse M2): More neutrophilic blasts (Metamyelocyte)
Bone marrow % E (Day 10, mouse M2): 60%
Bone marrow % M (Day 10, mouse M2): 40%
Bone marrow % E (Day 10, mouse M3): 20%
Bone marrow % M (Day 10, mouse M3): 80%
Bone marrow smear, Notes (Day 10, mouse M3): More blasts, neutrophilic row
Bone marrow % E (Day 10, mouse M4): 30%
Bone marrow % M (Day 10, mouse M4): 70%
Bone marrow smear, Notes (Day 10, mouse M4): More blasts, neutrophilic row
Bone marrow % E (Day 10, mouse M5): 30%
Bone marrow % M (Day 10, mouse M5): 70%
Bone marrow smear, Notes (Day 10, mouse M5): More blasts, neutrophilic row
Albumin concentration in blood plasma (Day 28, 30 kBq): 23 g/L
Blood urea nitrogen (Day 28, 30 kBq): 8.7 ± 1.1 mmol/L
Erythrocyte counts (Day 28, 30 kBq): 8.7 ± 0.3 × 10^12/L
Hematocrit (Day 28, 30 kBq): 43 ± 3%
Hemoglobin (Day 28, 30 kBq): 11.3 ± 0.5 g/dL
Kidneys: Hyperplasia/hypertrophy, tubular, incidence (Day 28, 30 kBq): 1
Kidneys: Hyperplasia/hypertrophy, tubular, score average (Day 28, 30 kBq): 1.0
Kidneys: Hypertrophy/hyperplasia, tubular with ectasia, incidence (Day 28, 30 kBq): 0
Kidneys: Hypertrophy/hyperplasia, tubular with ectasia, score average (Day 28, 30 kBq): 0.0
Kidneys: Inflammatory cells, interstitium, incidence (Day 28, 30 kBq): 0
Kidneys: Inflammatory cells, interstitium, score average (Day 28, 30 kBq): 0.0
Kidneys: Inflammatory cells, pelvis, incidence (Day 28, 30 kBq): 0
Kidneys: Inflammatory cells, pelvis, score average (Day 28, 30 kBq): 0.0
Kidneys: Mineralization, papilla, incidence (Day 28, 30 kBq): 1
Kidneys: Mineralization, papilla, score average (Day 28, 30 kBq): 1.0
Kidneys: Tubular basophilia, incidence (Day 28, 30 kBq): 1
Kidneys: Tubular basophilia, score average (Day 28, 30 kBq): 1.0
Salivary glands: Ductal hyperplasia with inflammatory cells, incidence (Day 28, 30 kBq): 0
Salivary glands: Ductal hyperplasia with inflammatory cells, score average (Day 28, 30 kBq): 0.0
Salivary glands: Hypertrophy acinar, sublingual, incidence (Day 28, 30 kBq): 0
Salivary glands: Hypertrophy acinar, sublingual, score average (Day 28, 30 kBq): 0.0
Salivary glands: Mononuclear cell foci, incidence (Day 28, 30 kBq): 1
Salivary glands: Mononuclear cell foci, score average (Day 28, 30 kBq): 1.0
Salivary glands: Necrosis, multifocal, serous acinar cells, incidence (Day 28, 30 kBq): all five
Salivary glands: Necrosis, multifocal, serous acinar cells, score average (Day 28, 30 kBq): 1.8
Salivary glands: Vacuolation, incidence (Day 28, 30 kBq): 0
Salivary glands: Vacuolation, score average (Day 28, 30 kBq): 0.0
Spleen: Extramedullary hematopoiesis, incidence (Day 28, 30 kBq): 5
Spleen: Extramedullary hematopoiesis, score average (Day 28, 30 kBq): 1.8
Spleen: Hyperplasia, lymphoid, incidence (Day 28, 30 kBq): 5
Spleen: Hyperplasia, lymphoid, score average (Day 28, 30 kBq): 1.0
Spleen: Pigment, incidence (Day 28, 30 kBq): 5
Spleen: Pigment, score average (Day 28, 30 kBq): 1.8
Salivary glands: Necrosis, multifocal, serous acinar cells, incidence (Day 28, 30 kBq, listed as [225Ac]Ac-PSMA-617): 5
Bone marrow % E (Day 28, mouse M1): 50%
Bone marrow % M (Day 28, mouse M1): 50%
Bone marrow % E (Day 28, mouse M2): 40%
Bone marrow % M (Day 28, mouse M2): 60%
Bone marrow % E (Day 28, mouse M3): 40%
Bone marrow % M (Day 28, mouse M3): 60%
Bone marrow % E (Day 28, mouse M4): 50%
Bone marrow % M (Day 28, mouse M4): 50%
Bone marrow % E (Day 28, mouse M5): 40%
Bone marrow % M (Day 28, mouse M5): 60%
Kidneys: Hyperplasia/hypertrophy, tubular, incidence (Day 56, 30 kBq): 1
Kidneys: Hyperplasia/hypertrophy, tubular, score average (Day 56, 30 kBq): 1.0
Kidneys: Hypertrophy/hyperplasia, tubular with ectasia, incidence (Day 56, 30 kBq): 0
Kidneys: Hypertrophy/hyperplasia, tubular with ectasia, score average (Day 56, 30 kBq): 0.0
Kidneys: Inflammatory cells, interstitium, incidence (Day 56, 30 kBq): 0
Kidneys: Inflammatory cells, interstitium, score average (Day 56, 30 kBq): 0.0
Kidneys: Inflammatory cells, pelvis, incidence (Day 56, 30 kBq): 0
Kidneys: Inflammatory cells, pelvis, score average (Day 56, 30 kBq): 0.0
Kidneys: Mineralization, papilla, incidence (Day 56, 30 kBq): 0
Kidneys: Mineralization, papilla, score average (Day 56, 30 kBq): 0.0
Kidneys: Tubular basophilia, incidence (Day 56, 30 kBq): 1
Kidneys: Tubular basophilia, score average (Day 56, 30 kBq): 1.0
Salivary glands: Ductal hyperplasia with inflammatory cells, incidence (Day 56, 30 kBq): 0
Salivary glands: Ductal hyperplasia with inflammatory cells, score average (Day 56, 30 kBq): 0.0
Salivary glands: Hypertrophy acinar, sublingual, incidence (Day 56, 30 kBq): 0
Salivary glands: Hypertrophy acinar, sublingual, score average (Day 56, 30 kBq): 0.0
Salivary glands: Mononuclear cell foci, incidence (Day 56, 30 kBq): 2
Salivary glands: Mononuclear cell foci, score average (Day 56, 30 kBq): 1.0
Salivary glands: Necrosis, multifocal, serous acinar cells, incidence (Day 56, 30 kBq): 0
Salivary glands: Necrosis, multifocal, serous acinar cells, score average (Day 56, 30 kBq): 0.0
Salivary glands: Vacuolation, incidence (Day 56, 30 kBq): 0
Salivary glands: Vacuolation, score average (Day 56, 30 kBq): 0.0
Spleen: Extramedullary hematopoiesis, incidence (Day 56, 30 kBq): 5
Spleen: Extramedullary hematopoiesis, score average (Day 56, 30 kBq): 1.4
Spleen: Hyperplasia, lymphoid, incidence (Day 56, 30 kBq): 0
Spleen: Hyperplasia, lymphoid, score average (Day 56, 30 kBq): 0.0
Spleen: Pigment, incidence (Day 56, 30 kBq): 5
Spleen: Pigment, score average (Day 56, 30 kBq): 2.0
Bone marrow % E (Day 56, mouse M1): 30%
Bone marrow % M (Day 56, mouse M1): 70%
Bone marrow % E (Day 56, mouse M2): 40%
Bone marrow % M (Day 56, mouse M2): 60%
Bone marrow % E (Day 56, mouse M3): 30%
Bone marrow % M (Day 56, mouse M3): 70%
Bone marrow % E (Day 56, mouse M4): 40%
Bone marrow % M (Day 56, mouse M4): 60%
